# Data: ChEMBL document CHEMBL5518215, “Unlocking Antibacterial Potential: Key-Site-Based Regulation of Antibacterial Spectrum of Peptides” (J Med Chem, 2024)
# How the values were obtained:
# Escherichia coli [1] = experiment: Antimicrobial activity against Escherichia coli 25922 assessed as absence bacterial growth measured after 18 to 24 hrs incubation in presence of 50% serum by NCCLS method; assay type: functional; details: time 18-24 hrs
# Escherichia coli [2] = experiment: Antimicrobial activity against Escherichia coli 25922 assessed as absence bacterial growth measured after 18 to 24 hrs incubation in presence of KCl by NCCLS method; assay type: functional; details: time 18-24 hrs
# Erythrocyte = experiment: Hemolytic activity in human RBC at effective concentration measured after 1 hr by microplate reader analysis; assay type: toxicity, cell-based
# Acinetobacter baumannii [3] = experiment: Antimicrobial activity against Acinetobacter baumannii 1.6769 assessed as absence bacterial growth measured after 18 to 24 hrs incubation by NCCLS method; assay type: functional; details: time 18-24 hrs
# Enterococcus faecalis [4] = experiment: Antimicrobial activity against Enterococcus faecalis 29212 assessed as absence bacterial growth measured after 18 to 24 hrs incubation by NCCLS method; assay type: functional; details: time 18-24 hrs
# Escherichia coli [5] = experiment: Antimicrobial activity against Escherichia coli 25922 assessed as absence bacterial growth measured after 18 to 24 hrs incubation in presence of NH4Cl by NCCLS method; assay type: functional; details: time 18-24 hrs
# [6] = Hemolytic activity in human RBC at effective concentration at 128 uM measured after 1 hr by microplate reader relative to control; assay type: toxicity, cell-based, Erythrocyte; details: human red blood cells (erythrocytes), read-out: Activity
# Escherichia coli [7] = experiment: Antimicrobial activity against Escherichia coli 25922 assessed as absence bacterial growth measured after 18 to 24 hrs incubation in presence of 25% serum by NCCLS method; assay type: functional; details: time 18-24 hrs
# Salmonella typhimurium [8] = experiment: Antimicrobial activity against Salmonella typhimurium 14028 assessed as bacterial killing measured after 16 hrs incubation; assay type: functional, Salmonella enterica subsp. enterica serovar Typhimurium; details: Salmonella enterica
# Escherichia coli [9] = experiment: Antimicrobial activity against Escherichia coli K88 assessed as bacterial killing measured after 16 hrs incubation; assay type: functional
# Escherichia coli [10] = experiment: Antimicrobial activity against Escherichia coli 25922 assessed as bacterial killing measured after 16 hrs incubation; assay type: functional
# Listeria monocytogenes [11] = experiment: Antimicrobial activity against Listeria monocytogenes 1.10753 assessed as bacterial killing measured after 16 hrs incubation; assay type: functional
# Escherichia coli [12] = experiment: Antimicrobial activity against Escherichia coli 25922 assessed as absence bacterial growth measured after 18 to 24 hrs incubation by NCCLS method; assay type: functional; details: time 18-24 hrs
# [13] = Cytotoxicity against mouse RAW264.7 cells assessed as cell survival rate measured after 8 hrs by MTT assay; assay type: toxicity, cell-based
# Bacillus cereus [14] = experiment: Antimicrobial activity against Bacillus cereus 1.932 assessed as absence bacterial growth measured after 18 to 24 hrs incubation by NCCLS method; assay type: functional; details: time 18-24 hrs
# Salmonella typhimurium [15] = experiment: Antimicrobial activity against Salmonella typhimurium 14028 assessed as absence bacterial growth measured after 18 to 24 hrs incubation by NCCLS method; assay type: functional, Salmonella enterica subsp. enterica serovar Typhimurium; details: Salmonella enterica, time 18-24 hrs
# Listeria monocytogenes [16] = experiment: Antimicrobial activity against Listeria monocytogenes 1.10753 assessed as absence bacterial growth measured after 18 to 24 hrs incubation by NCCLS method; assay type: functional; details: time 18-24 hrs
# Escherichia coli [17] = experiment: Antimicrobial activity against Escherichia coli 25922 assessed as absence bacterial growth measured after 18 to 24 hrs incubation in presence of FeCl3 by NCCLS method; assay type: functional; details: time 18-24 hrs
# Escherichia coli [18] = experiment: Antimicrobial activity against Escherichia coli K88 assessed as absence bacterial growth measured after 18 to 24 hrs incubation by NCCLS method; assay type: functional; details: time 18-24 hrs
# Staphylococcus aureus [19] = experiment: Antimicrobial activity against Methicillin-resistant Staphylococcus aureus 43300 assessed as absence bacterial growth measured after 18 to 24 hrs incubation by NCCLS method; assay type: functional; details: time 18-24 hrs
# [20] = Antimicrobial activity against Salmonella pullorum C7913 assessed as absence bacterial growth measured after 18 to 24 hrs incubation by NCCLS method; assay type: functional, Salmonella enterica subsp. enterica serovar Pullorum; details: Salmonella enterica, time 18-24 hrs
# Pseudomonas aeruginosa [21] = experiment: Antimicrobial activity against Pseudomonas aeruginosa 27853 assessed as absence bacterial growth measured after 18 to 24 hrs incubation by NCCLS method; assay type: functional; details: time 18-24 hrs
# Staphylococcus aureus [22] = experiment: Antimicrobial activity against Staphylococcus aureus 25923 assessed as bacterial killing measured after 16 hrs incubation; assay type: functional
# Escherichia coli [23] = experiment: Antimicrobial activity against Escherichia coli 25922 assessed as absence bacterial growth measured after 18 to 24 hrs incubation in presence of MgCl2 by NCCLS method; assay type: functional; details: time 18-24 hrs
# Staphylococcus aureus [24] = experiment: Antimicrobial activity against Staphylococcus aureus 29213 assessed as absence bacterial growth measured after 18 to 24 hrs incubation by NCCLS m; assay type: functional; details: time 18-24 hrs
# [25] = Cytotoxicity against human HEK-293T cells assessed as cell survival rate measured after 8 hrs by MTT assay; assay type: toxicity, cell-based
# Salmonella typhimurium [26] = experiment: Antimicrobial activity against Salmonella typhimurium C7731 assessed as bacterial killing measured after 16 hrs incubation; assay type: functional, Salmonella enterica subsp. enterica serovar Typhimurium; details: Salmonella enterica
# Staphylococcus aureus [27] = experiment: Antimicrobial activity against Staphylococcus aureus 29213 assessed as bacterial killing measured after 16 hrs incubation; assay type: functional
# Escherichia coli [28] = experiment: Antimicrobial activity against Escherichia coli 25922 assessed as absence bacterial growth measured after 18 to 24 hrs incubation in presence of 12.5% serum by NCCLS method; assay type: functional; details: time 18-24 hrs
# Staphylococcus aureus [29] = experiment: Antimicrobial activity against Methicillin-resistant Staphylococcus aureus 43300 assessed as bacterial killing measured after 16 hrs incubation; assay type: functional
# [30] = tested on: Staphylococcus epidermidis; experiment: Antimicrobial activity against Staphylococcus epidermidis 12228 assessed as bacterial killing measured after 16 hrs incubation; assay type: functional
# Escherichia coli [31] = experiment: Antimicrobial activity against Escherichia coli 25922 assessed as absence bacterial growth measured after 18 to 24 hrs incubation in presence of ZnCl2 by NCCLS method; assay type: functional; details: time 18-24 hrs
# Salmonella typhimurium [32] = experiment: Antimicrobial activity against Salmonella typhimurium C7731 assessed as absence bacterial growth measured after 18 to 24 hrs incubation by NCCLS method; assay type: functional, Salmonella enterica subsp. enterica serovar Typhimurium; details: Salmonella enterica, time 18-24 hrs
# Acinetobacter baumannii [33] = experiment: Antimicrobial activity against Acinetobacter baumannii 1.6769 assessed as bacterial killing measured after 16 hrs incubation; assay type: functional
# Bacillus cereus [34] = experiment: Antimicrobial activity against Bacillus cereus 1.932 assessed as bacterial killing measured after 16 hrs incubation; assay type: functional
# [35] = tested on: Staphylococcus epidermidis; experiment: Antimicrobial activity against Staphylococcus epidermidis 12228 assessed as absence bacterial growth measured after 18 to 24 hrs incubation by NCCLS method; assay type: functional; details: time 18-24 hrs
# Escherichia coli [36] = experiment: Antimicrobial activity against Escherichia coli 25922 assessed as absence bacterial growth measured after 18 to 24 hrs incubation in presence of NaCl by NCCLS method; assay type: functional; details: time 18-24 hrs
# Enterococcus faecalis [37] = experiment: Antimicrobial activity against Enterococcus faecalis 29212 assessed as bacterial killing measured after 16 hrs incubation; assay type: functional
# Pseudomonas aeruginosa [38] = experiment: Antimicrobial activity against Pseudomonas aeruginosa 27853 assessed as bacterial killing measured after 16 hrs incubation; assay type: functional
# Staphylococcus aureus [39] = experiment: Antimicrobial activity against Staphylococcus aureus 29213 assessed as absence bacterial growth measured after 18 to 24 hrs incubation by NCCLS method; assay type: functional; details: time 18-24 hrs
# [40] = Antimicrobial activity against Salmonella pullorum C7913 assessed as bacterial killing measured after 16 hrs incubation; assay type: functional, Salmonella enterica subsp. enterica serovar Pullorum; details: Salmonella enterica
# [41] = Cytotoxicity against porcine IPEC-J2 cells assessed as cell survival rate measured after 8 hrs by MTT assay; assay type: toxicity, cell-based, Sus scrofa; details: pig
substance,measurement,setting,value
H-CKLWLKGGKLWLKGGKLWLKG-NH2,MIC,Escherichia coli [1],> 32 µM
same,MIC,Escherichia coli [2],> 32 µM
same,HC10,Erythrocyte,> 128 µM
same,MIC,Acinetobacter baumannii [3],> 32 µM
same,MIC,Enterococcus faecalis [4],> 32 µM
same,MIC,Escherichia coli [5],> 32 µM
same,"hemolysis at 1 h, 128 µM",[6],< 10%
same,MIC,Escherichia coli [7],> 32 µM
same,MBC,Salmonella typhimurium [8],> 32 µM
same,MBC,Escherichia coli [9],2 µM
same,MBC,Escherichia coli [10],> 32 µM
same,MBC,Listeria monocytogenes [11],> 32 µM
same,MIC,Escherichia coli [12],> 32 µM
same,IC50 at 8 h,[13],60.1 µM
same,MIC,Bacillus cereus [14],> 32 µM
same,MIC,Salmonella typhimurium [15],> 32 µM
same,MIC,Listeria monocytogenes [16],> 32 µM
same,MIC,Escherichia coli [17],> 32 µM
same,MIC,Escherichia coli [18],2 µM
same,MIC,Staphylococcus aureus [19],> 32 µM
same,MIC,[20],2 µM
same,MIC,Pseudomonas aeruginosa [21],> 32 µM
same,MBC,Staphylococcus aureus [22],> 32 µM
same,MIC,Escherichia coli [23],> 32 µM
same,MIC,Staphylococcus aureus [24],> 32 µM
same,IC50 at 8 h,[25],> 64 µM
same,MBC,Salmonella typhimurium [26],> 32 µM
same,MBC,Staphylococcus aureus [27],> 32 µM
same,MIC,Escherichia coli [28],32 µM
same,MBC,Staphylococcus aureus [29],> 32 µM
same,MBC,[30],> 32 µM
same,MIC,Escherichia coli [31],> 32 µM
same,MIC,Salmonella typhimurium [32],> 32 µM
same,MBC,Acinetobacter baumannii [33],> 32 µM
same,MBC,Bacillus cereus [34],> 32 µM
same,MIC,[35],> 32 µM
same,MIC,Escherichia coli [36],> 32 µM
same,MBC,Enterococcus faecalis [37],> 32 µM
same,MBC,Pseudomonas aeruginosa [38],> 32 µM
same,MIC,Staphylococcus aureus [39],> 32 µM
same,MBC,[40],2 µM
same,IC50 at 8 h,[41],14.3 µM
H-WKLWLKGGKLWLKGGKLWLKG-NH2,MIC,Escherichia coli [1],> 32 µM
same,MIC,Escherichia coli [2],8 µM
same,HC10,Erythrocyte,128 µM
same,MIC,Acinetobacter baumannii [3],4 µM
same,MIC,Enterococcus faecalis [4],> 32 µM
same,MIC,Escherichia coli [5],8 µM
same,"hemolysis at 1 h, 128 µM",[6],< 10%
same,MIC,Escherichia coli [7],> 32 µM
same,MBC,Salmonella typhimurium [8],8 µM
same,MBC,Escherichia coli [9],1 µM
same,MBC,Escherichia coli [10],4 µM
same,MBC,Listeria monocytogenes [11],> 32 µM
same,MIC,Escherichia coli [12],4 µM
same,IC50 at 8 h,[13],> 64 µM
same,MIC,Bacillus cereus [14],> 32 µM
same,MIC,Salmonella typhimurium [15],4 µM
same,MIC,Listeria monocytogenes [16],> 32 µM
same,MIC,Escherichia coli [17],4 µM
same,MIC,Escherichia coli [18],1 µM
same,MIC,Staphylococcus aureus [19],8 µM
same,MIC,[20],1 µM
same,MIC,Pseudomonas aeruginosa [21],8 µM
same,MBC,Staphylococcus aureus [22],> 32 µM
same,MIC,Escherichia coli [23],> 32 µM
same,MIC,Staphylococcus aureus [24],> 32 µM
same,IC50 at 8 h,[25],> 64 µM
same,MBC,Salmonella typhimurium [26],32 µM
same,MBC,Staphylococcus aureus [27],8 µM
same,MIC,Escherichia coli [28],> 32 µM
same,MBC,Staphylococcus aureus [29],> 32 µM
same,MBC,[30],> 32 µM
same,MIC,Escherichia coli [31],4 µM
same,MIC,Salmonella typhimurium [32],4 µM
same,MBC,Acinetobacter baumannii [33],4 µM
same,MBC,Bacillus cereus [34],> 32 µM
same,MIC,[35],16 µM
same,MIC,Escherichia coli [36],16 µM
same,MBC,Enterococcus faecalis [37],> 32 µM
same,MBC,Pseudomonas aeruginosa [38],16 µM
same,MIC,Staphylococcus aureus [39],> 32 µM
same,MBC,[40],2 µM
same,IC50 at 8 h,[41],12.9 µM
H-VKLWLKGGKLWLKGGKLWLKG-NH2,MIC,Escherichia coli [1],> 32 µM
same,MIC,Escherichia coli [2],4 µM
same,HC10,Erythrocyte,> 128 µM
same,MIC,Acinetobacter baumannii [3],4 µM
same,MIC,Enterococcus faecalis [4],> 32 µM
same,MIC,Escherichia coli [5],8 µM
same,"hemolysis at 1 h, 128 µM",[6],< 10%
same,MIC,Escherichia coli [7],32 µM
same,MBC,Salmonella typhimurium [8],16 µM
same,MBC,Escherichia coli [9],1 µM
same,MBC,Escherichia coli [10],16 µM
same,MBC,Listeria monocytogenes [11],> 32 µM
same,MIC,Escherichia coli [12],4 µM
same,IC50 at 8 h,[13],> 64 µM
same,MIC,Bacillus cereus [14],> 32 µM
same,MIC,Salmonella typhimurium [15],8 µM
same,MIC,Listeria monocytogenes [16],> 32 µM
same,MIC,Escherichia coli [17],4 µM
same,MIC,Escherichia coli [18],1 µM
same,MIC,Staphylococcus aureus [19],> 32 µM
same,MIC,[20],2 µM
same,MIC,Pseudomonas aeruginosa [21],> 32 µM
same,MBC,Staphylococcus aureus [22],> 32 µM
same,MIC,Escherichia coli [23],> 32 µM
same,MIC,Staphylococcus aureus [24],> 32 µM
same,IC50 at 8 h,[25],> 64 µM
same,MBC,Salmonella typhimurium [26],32 µM
same,MBC,Staphylococcus aureus [27],> 32 µM
same,MIC,Escherichia coli [28],16 µM
same,MBC,Staphylococcus aureus [29],> 32 µM
same,MBC,[30],> 32 µM
same,MIC,Escherichia coli [31],4 µM
same,MIC,Salmonella typhimurium [32],8 µM
same,MBC,Acinetobacter baumannii [33],16 µM
same,MBC,Bacillus cereus [34],> 32 µM
same,MIC,[35],> 32 µM
same,MIC,Escherichia coli [36],> 32 µM
same,MBC,Enterococcus faecalis [37],> 32 µM
same,MBC,Pseudomonas aeruginosa [38],> 32 µM
same,MIC,Staphylococcus aureus [39],> 32 µM
same,MBC,[40],4 µM
same,IC50 at 8 h,[41],60.2 µM
